# Earlier results in US20090220426A1, “Biodegradable Inverted-Opal Structure, Method for Manufacturing and Using the Same, and Medical Implant Comprising the Biodegradable Inverted-Opal Structure” (KINKI UNIVERSITY, priority 2006, published 2009).
# Test system: mouse
row,SMILES,L.D.50 (oral mouse)
1,"OCCCCCO [1,5-pentanediol]","25,500 mg/kg"
2,OCC(CO)(CO)CO [pentaerythritol],"25,500 mg/kg"
